From patent publication US9718825B2, “N-(4-(azaindazol-6-yl)-phenyl)-sulfonamides and their use as pharmaceuticals” (priority 2013, dated 2017)

Experiments:
[1] = test system: SGK-1 dependent phosphorylation of GSK3beta in U2OS cells; test: SGK-1 dependent phosphorylation of GSK3beta in U2OS cells overexpressing recombinant SGK-1 and GSK3beta; type: cell-based, human; conditions: U2OS cells, 6 h incubation, ratio of phosphorylated GSK3beta to total GSK3beta; read-out: IC50 values for inhibition of SGK-1 dependent phosphorylation of GSK3beta in U2OS cells
[2] = target: recombinant human SGK-1 enzyme (Homo sapiens, UniProt O00141); test: Enzymatic activity assay: SGK-1 substrate peptide phosphorylation (Caliper lab-chip mobility shift); type: biochemical; conditions: peptide substrate 1 μM, ATP 10 μM, 60 min at 37° C., read-out: IC50 values for inhibition of SGK-1 enzymatic activity
Sequence of recombinant human SGK-1 enzyme (O00141 whole entry, looked up): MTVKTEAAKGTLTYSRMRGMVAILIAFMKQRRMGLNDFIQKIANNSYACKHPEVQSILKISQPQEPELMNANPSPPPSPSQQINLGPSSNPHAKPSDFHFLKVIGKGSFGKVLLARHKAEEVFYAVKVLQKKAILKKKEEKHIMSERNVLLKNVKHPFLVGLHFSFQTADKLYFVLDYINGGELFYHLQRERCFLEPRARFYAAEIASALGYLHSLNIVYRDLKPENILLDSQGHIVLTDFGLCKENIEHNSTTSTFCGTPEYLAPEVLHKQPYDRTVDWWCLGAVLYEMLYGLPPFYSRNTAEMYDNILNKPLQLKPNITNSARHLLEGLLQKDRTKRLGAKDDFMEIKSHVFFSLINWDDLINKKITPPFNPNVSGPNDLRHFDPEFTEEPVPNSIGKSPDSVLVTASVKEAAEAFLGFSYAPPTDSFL

N#Cc1ccc(Cl)cc1S(=O)(=O)Nc1ccc(-c2nc(OCC(F)(F)F)c3c(N)n[nH]c3n2)cc1 [Example 196]
IC50 [1]: 330 nM
IC50 [2]: 4.6 nM

COc1ccc(F)c(S(=O)(=O)Nc2ccc(-c3nc(OCC(F)(F)F)c4c(N)n[nH]c4n3)cc2)c1 [Example 197]
IC50 [1]: 65 nM
IC50 [2]: 3 nM

O=S(=O)(Nc1ccc(-c2nc(OCC3CNC3)c3cn[nH]c3n2)cc1)c1cc(Cl)ccc1F [Example 198]
IC50 [1]: 510 nM
IC50 [2]: < 1.5 nM

NCCCOc1nc(-c2ccc(NS(=O)(=O)c3cc(F)ccc3F)cc2)nc2[nH]ncc12 [Example 199]
IC50 [1]: 640 nM
IC50 [2]: 26 nM

COc1ccc(Cl)c(S(=O)(=O)Nc2ccc(-c3nc(OCCCN)c4cn[nH]c4n3)cc2)c1 [Example 203]
IC50 [1]: 160 nM
IC50 [2]: < 1.5 nM

Cc1ccc(F)c(S(=O)(=O)Nc2ccc(-c3nc(OCCCN)c4cn[nH]c4n3)cc2)c1 [Example 204]
IC50 [1]: 130 nM
IC50 [2]: < 1.5 nM

Cc1ccc(F)c(S(=O)(=O)Nc2ccc(-c3nc(OCCCN)c4c(C)n[nH]c4n3)cc2)c1 [Example 207]
IC50 [1]: 140 nM
IC50 [2]: < 1.5 nM

Cc1n[nH]c2nc(-c3ccc(NS(=O)(=O)c4cc(Cl)ccc4F)cc3)nc(OCCCN)c12 [Example 209]
IC50 [1]: 100 nM
IC50 [2]: < 1.5 nM

Cc1n[nH]c2nc(-c3ccc(NS(=O)(=O)c4cc(Cl)ccc4Cl)cc3)nc(OCCCN)c12 [Example 210]
IC50 [1]: 98 nM
IC50 [2]: < 1.5 nM

Cc1n[nH]c2nc(-c3ccc(NS(=O)(=O)c4ccccc4F)cc3)nc(OCCCN)c12 [Example 211]
IC50 [1]: 80 nM
IC50 [2]: 2.3 nM

COc1ccc(Cl)c(S(=O)(=O)Nc2ccc(-c3nc(OCCCN)c4c(C)n[nH]c4n3)cc2)c1 [Example 212]
IC50 [1]: 110 nM
IC50 [2]: < 1.5 nM

Cc1ccc(C#N)c(S(=O)(=O)Nc2ccc(-c3nc(OCCCN)c4c(C)n[nH]c4n3)cc2)c1 [Example 213]
IC50 [1]: 190 nM
IC50 [2]: 6.4 nM

Cc1n[nH]c2nc(-c3ccc(NS(=O)(=O)c4cc(Cl)ccc4Cl)cc3)nc(OC3CCC(O)CC3)c12 (stereo not shown) [Example 214]
IC50 [1]: 130 nM
IC50 [2]: 69 nM

Cc1n[nH]c2nc(-c3ccc(NS(=O)(=O)c4cc(F)ccc4F)cc3)nc(OC3CCC(O)CC3)c12 (stereo not shown) [Example 217]
IC50 [1]: 190 nM
IC50 [2]: 9.1 nM

COc1ccc(F)c(S(=O)(=O)Nc2ccc(-c3nc(OCCCN)c4cn[nH]c4n3)cc2)c1 [Example 219]
IC50 [1]: 230 nM
IC50 [2]: < 1.5 nM

Cc1n[nH]c2nc(-c3ccc(NS(=O)(=O)c4cc(Cl)ccc4C#N)cc3)nc(OCCCN)c12 [Example 220]
IC50 [1]: 170 nM
IC50 [2]: < 1.5 nM

Cc1ccc(F)c(S(=O)(=O)Nc2ccc(-c3nc(OCC4CNCCO4)c4c(C)n[nH]c4n3)cc2)c1 (stereo not shown) [Example 288]
IC50 [1]: 61 nM
IC50 [2]: 2.3 nM

Cc1n[nH]c2nc(-c3ccc(NS(=O)(=O)c4ccccc4F)cc3)nc(OCC3CNCCO3)c12 (stereo not shown) [Example 289]
IC50 [1]: 200 nM
IC50 [2]: 23 nM

COc1ccc(Cl)c(S(=O)(=O)Nc2ccc(-c3nc(OCC4CNCCO4)c4c(C)n[nH]c4n3)cc2)c1 (stereo not shown) [Example 290]
IC50 [1]: 15 nM
IC50 [2]: 3.3 nM

Cc1n[nH]c2nc(-c3ccc(NS(=O)(=O)c4cc(Cl)ccc4F)cc3)nc(OCC3CNCCO3)c12 (stereo not shown) [Example 291]
IC50 [1]: 76 nM
IC50 [2]: 2.5 nM

Cc1n[nH]c2nc(-c3ccc(NS(=O)(=O)c4cc(F)ccc4F)cc3)nc(OCC3CNCCO3)c12 (stereo not shown) [Example 292]
IC50 [1]: 930 nM
IC50 [2]: 14 nM

Cc1ccc(C#N)c(S(=O)(=O)Nc2ccc(-c3nc(OCC4CNCCO4)c4c(C)n[nH]c4n3)cc2)c1 (stereo not shown) [Example 293]
IC50 [1]: 630 nM
IC50 [2]: 3.2 nM

COc1ccc(F)c(S(=O)(=O)Nc2ccc(-c3nc(OC4CCCNC4)c4c(C)n[nH]c4n3)cc2)c1 (stereo not shown) [Example 294]
IC50 [1]: 270 nM
IC50 [2]: 3.5 nM

COc1ccc(F)c(S(=O)(=O)Nc2ccc(-c3nc(OCC4CNCCO4)c4c(C)n[nH]c4n3)cc2)c1 (stereo not shown) [Example 295]
IC50 [1]: 25 nM
IC50 [2]: 2.6 nM

Cc1n[nH]c2nc(-c3ccc(NS(=O)(=O)c4cc(F)ccc4F)cc3)nc(OC3CCNCC3F)c12 (stereo not shown) [Example 296]
IC50 [1]: 60 nM
IC50 [2]: 2.7 nM

Cc1n[nH]c2nc(-c3ccc(NS(=O)(=O)c4ccccc4F)cc3)nc(OC3CCNCC3F)c12 (stereo not shown) [Example 297]
IC50 [1]: 80 nM
IC50 [2]: 1.8 nM

Cc1ccc(F)c(S(=O)(=O)Nc2ccc(-c3nc(OC4CCNCC4F)c4c(C)n[nH]c4n3)cc2)c1 (stereo not shown) [Example 298]
IC50 [1]: 43 nM
IC50 [2]: 2.3 nM

Cc1n[nH]c2nc(-c3ccc(NS(=O)(=O)c4cc(Cl)ccc4C#N)cc3)nc(OC3CCNCC3F)c12 (stereo not shown) [Example 299]
IC50 [1]: 410 nM
IC50 [2]: 3.3 nM

Cc1ccc(C#N)c(S(=O)(=O)Nc2ccc(-c3nc(OC4CCNCC4F)c4c(C)n[nH]c4n3)cc2)c1 (stereo not shown) [Example 300]
IC50 [1]: 92 nM
IC50 [2]: 1.1 nM

COc1ccc(F)c(S(=O)(=O)Nc2ccc(-c3nc(OC4CCNCC4F)c4c(C)n[nH]c4n3)cc2)c1 (stereo not shown) [Example 302]
IC50 [1]: 86 nM
IC50 [2]: 1.9 nM

Cc1n[nH]c2nc(-c3ccc(NS(=O)(=O)c4cc(Cl)ccc4Cl)cc3)nc(OC3CCNCC3F)c12 (stereo not shown) [Example 303]
IC50 [1]: 57 nM
IC50 [2]: 2.2 nM

COc1ccc(Cl)c(S(=O)(=O)Nc2ccc(-c3nc(OC4CCNCC4F)c4c(C)n[nH]c4n3)cc2)c1 (stereo not shown) [Example 304]
IC50 [1]: 130 nM
IC50 [2]: 2.3 nM

O=S(=O)(Nc1ccc(-c2nc(OCC3CNCCO3)c3cn[nH]c3n2)cc1)c1cc(Cl)ccc1F (stereo not shown) [Example 305]
IC50 [1]: 89 nM
IC50 [2]: 10 nM

COc1ccc(Cl)c(S(=O)(=O)Nc2ccc(-c3nc(OCC4CNCCO4)c4cn[nH]c4n3)cc2)c1 (stereo not shown) [Example 306]
IC50 [1]: 19 nM
IC50 [2]: 7.1 nM

COc1ccc(F)c(S(=O)(=O)Nc2ccc(-c3nc(OCC4CNCCO4)c4cn[nH]c4n3)cc2)c1 (stereo not shown) [Example 309]
IC50 [1]: 160 nM
IC50 [2]: 2.8 nM

O=S(=O)(Nc1ccc(-c2nc(OCC3CNCCO3)c3cn[nH]c3n2)cc1)c1cc(F)ccc1F (stereo not shown) [Example 311]
IC50 [1]: 92 nM
IC50 [2]: 240 nM

O=S(=O)(Nc1ccc(-c2nc(OCC3CNCCO3)c3cn[nH]c3n2)cc1)c1cc(Cl)ccc1Cl (stereo not shown) [Example 312]
IC50 [1]: 130 nM
IC50 [2]: 6 nM

Cc1n[nH]c2nc(-c3ccc(NS(=O)(=O)c4cc(Cl)ccc4Cl)cc3)nc(OCC3CNCCO3)c12 (stereo not shown) [Example 313]
IC50 [1]: 47 nM
IC50 [2]: 2 nM

Cc1ccc(C#N)c(S(=O)(=O)Nc2ccc(-c3nc(OC4CCN(C)CC4)c4cn[nH]c4n3)cc2)c1 [Example 314]
IC50 [1]: 250 nM
IC50 [2]: 4.5 nM

Cc1ccc(C#N)c(S(=O)(=O)Nc2ccc(-c3nc(OCC4CNCCO4)c4cn[nH]c4n3)cc2)c1 (stereo not shown) [Example 315]
IC50 [1]: 600 nM
IC50 [2]: 7.9 nM

CC(C)COc1nc(-c2ccc(NS(=O)(=O)c3ccccc3Cl)cc2)nc2[nH]nc(N)c12 [Example 316]
IC50 [1]: 270 nM
IC50 [2]: 480 nM

COc1ccc(Cl)c(S(=O)(=O)Nc2ccc(-c3nc(OC4CCCNC4)c4c(C)n[nH]c4n3)cc2)c1 (stereo not shown) [Example 319]
IC50 [1]: 31 nM
IC50 [2]: 4.5 nM

Cc1ccc(C#N)c(S(=O)(=O)Nc2ccc(-c3nc(OC4CCCNC4)c4c(C)n[nH]c4n3)cc2)c1 (stereo not shown) [Example 320]
IC50 [1]: 57 nM
IC50 [2]: 3.7 nM

Cc1n[nH]c2nc(-c3ccc(NS(=O)(=O)c4ccccc4F)cc3)nc(OC3CCCNC3)c12 (stereo not shown) [Example 323]
IC50 [1]: 100 nM
IC50 [2]: 12 nM
